Values quoted from earlier work, collected in patent US20260216324A1, “QS-21 COMPOSITIONS AND PROCESSES FOR PRODUCING THE SAME AND USES THEREFOR” (priority 2022, published 2026).

Assays:
[1] = prior art; saponins purified from Quillaja saponaria bark extract
[2] = U.S. Pat. No. 5,583,112 (Example 11), isomers derived from bark
[3] = U.S. Pat. No. 5,583,112 (Example 11), isomers derived from bark; remark: listed apart in the source

Compound | adjuvant activity [1] | adjuvanticity compared to standard 65:35 QS-21 [2] | toxicity compared to standard 65:35 QS-21 [3]
QS-18 | adjuvant active |  | 
CC[C@H](C)[C@H](C[C@H](O)CC(=O)O[C@@H]1[C@H](O)[C@@H](O[C@@H]2O[C@@H](C)[C@H](O[C@@H]3OC[C@@H](O)[C@H](O[C@@H]4OC[C@](O)(CO)[C@H]4O)[C@H]3O)[C@@H](O)[C@H]2O)[C@H](OC(=O)[C@]23CCC(C)(C)C[C@H]2C2=CC[C@@H]4[C@@]5(C)CC[C@H](O[C@@H]6O[C@H](C(=O)O)[C@@H](O)[C@H](O[C@@H]7OC[C@@H](O)[C@H](O)[C@H]7O)[C@H]6O[C@@H]6O[C@H](CO)[C@H](O)[C@H](O)[C@H]6O)[C@@](C)(C=O)[C@@H]5CC[C@@]4(C)[C@]2(C)C[C@H]3O)O[C@@H]1C)OC(=O)C[C@@H](O)C[C@H](O[C@@H]1O[C@@H](CO)[C@H](O)[C@H]1O)[C@@H](C)CC (single isomer, unassigned) [purified apiose isomer] |  | comparable in both adjuvanticity and toxicity to the standard 65:35 (apiose:xylose ratio) QS-21 | comparable in both adjuvanticity and toxicity to the standard 65:35 (apiose:xylose ratio) QS-21
CC[C@H](C)[C@H](C[C@H](O)CC(=O)O[C@@H]1[C@H](O)[C@@H](O[C@@H]2O[C@@H](C)[C@H](O[C@@H]3OC[C@@H](O)[C@H](O[C@@H]4OC[C@@H](O)[C@H](O)[C@H]4O)[C@H]3O)[C@@H](O)[C@H]2O)[C@H](OC(=O)[C@]23CCC(C)(C)C[C@H]2C2=CC[C@@H]4[C@@]5(C)CC[C@H](O[C@@H]6O[C@H](C(=O)O)[C@@H](O)[C@H](O[C@@H]7OC[C@@H](O)[C@H](O)[C@H]7O)[C@H]6O[C@@H]6O[C@H](CO)[C@H](O)[C@H](O)[C@H]6O)[C@@](C)(C=O)[C@@H]5CC[C@@]4(C)[C@]2(C)C[C@H]3O)O[C@@H]1C)OC(=O)C[C@@H](O)C[C@H](O[C@@H]1O[C@@H](CO)[C@H](O)[C@H]1O)[C@@H](C)CC (single isomer, unassigned) [purified xylose isomer] |  | comparable in both adjuvanticity and toxicity to the standard 65:35 (apiose:xylose ratio) QS-21 | comparable in both adjuvanticity and toxicity to the standard 65:35 (apiose:xylose ratio) QS-21
QS-17 | adjuvant active |  | 
